Measurements published in US9561228B2 (Celgene Avilomics Research, Inc., priority 2013, dated 2017).
pEC50: −log10 of the molar value.

What was measured:
Assay type in all cases: cell-based
[1] = tested on: ERK1/2 phosphorylation of p90RSK in HT29 cells; test: pRSK MSD Assay in HT29 cells; settings: Homo sapiens, HT-29, read-out: ERK1/ERK2 PRSK MSD HT29 EC50
Summary of the method: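 Phospho-RSK level, read by electrochemiluminescence on RSK-antibody-coated MSD plates with a phospho-RSK/Sulfo-tag detection pair, reports cellular ERK1/2 activity. HT29 cells, kept overnight in 0.1% FBS medium, were exposed to compound for 120 min at 37° C before lysis.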

[2] = tested on: HT-29 cells (colorectal adenocarcinoma); test: Inhibition of cancer cell proliferation, HT-29 (CellTiterGlo, 72 hours); settings: Homo sapiens
Summary of the method: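 Proliferation over 72 h at 37° C was read by CellTiterGlo luminescence, translated to cell counts with a cell-density standard curve (390–50,000 cells). Compound added as 3-fold dilutions from a 5,000 nM two-fold stock to 3000 seeded HT-29 cells; GI50 from percent inhibition relative to untreated wells.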

[3] = tested on: ERK1/2 phosphorylation of p90RSK in A375 cells; test: Detection of total and phosphor-RSK by MSD ELISA (A375); settings: Homo sapiens, A-375, read-out: ERK1/ERK2 PRSK A375 EC50
Summary of the method: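 Electrochemiluminescent MSD ELISA: common RSK capture antibody, with pRSK Ser380 or total RSK detection antibodies plus SulfoTag secondaries. Samples were lysates of A375 cells exposed to compound for 2 h at 37° C after overnight culture in 0.1% FBS DMEM.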

Row | SMILES | pEC50 [1] | GI50 [2] [µM] | pEC50 [3]
1 | C=CC(=O)Nc1ccccc1Nc1nc(N[C@H]2CCN(C(C)=O)C2)ncc1C(F)(F)F [Compound I-56, (S)—N-(2-((2-((1-Acetylpyrrolidin-3-yl)amino)-5-(trifluoromethyl)pyrimidin-4-yl)amino)phenyl)acrylamide] | 6.30 to 7.00 | 0.101 to 0.5 | 
2 | C=CC(=O)Nc1ccccc1Nc1nc(N[C@H]2CCN(C(=O)CO)C2)ncc1C(F)(F)F [Compound I-57, (S)—N-(2-((2-((1-(2-Hydroxyacetyl)pyrrolidin-3-yl)amino)-5-(trifluoromethyl)pyrimidin-4-yl)amino)phenyl)acrylamide] | 6.30 to 7.00 | 0.101 to 0.5 | 
3 | C=CC(=O)Nc1ccccc1Nc1nc(N[C@H]2CCN(S(C)(=O)=O)C2)ncc1C(F)(F)F [Compound I-58, (S)—N-(2-((2-((1-(Methylsulfonyl)pyrrolidin-3-yl)amino)-5-(trifluoromethyl)pyrimidin-4-yl)amino)phenyl)acrylamide] | 6.30 to 7.00 | 0.101 to 0.5 | 
4 | C=CC(=O)Nc1ccccc1Nc1nc(N[C@H]2CCN(C(=O)OC)C2)ncc1C(F)(F)F [Compound I-59, (S)-methyl 3-((4-((2-Acrylamidophenyl)amino)-5-(trifluoromethyl)pyrimidin-2-yl)amino)pyrrolidine-1-carboxylate] | < 6.00 | 0.101 to 0.5 | 
5 | C=CC(=O)Nc1ccccc1Nc1nc(N[C@@H]2CCN(C(C)=O)C2)ncc1C(F)(F)F [Compound I-60, (R)—N-(2-((2-((1-Acetylpyrrolidin-3-yl)amino)-5-(trifluoromethyl)pyrimidin-4-yl)amino)phenyl)acrylamide] | < 6.00 | 0.101 to 0.5 | 
6 | C=CC(=O)Nc1cc(OC)ccc1Nc1nc(N[C@H]2CCCN(C(=O)CO)C2)ncc1C(F)(F)F [Compound I-64, (S)—N-(2-((2-((1-(2-Hydroxyacetyl)piperidin-3-yl)amino)-5-(trifluoromethyl)pyrimidin-4-yl)amino)-5-methoxyphenyl)acrylamide] | > 7.00 | < 0.1 | 6.30 to 7.00
7 | C=CC(=O)Nc1ccccc1Nc1nc(Nc2cc(C(N)=O)ccc2C)ncc1C(F)(F)F [Compound I-68, 3-(4-(2-Acrylamidophenylamino)-5-(trifluoromethyl)pyrimidin-2-ylamino)-4-methylbenzamide] | > 7.00 | < 0.1 | 6.30 to 7.00
8 | C=CC(=O)Nc1cc(OC)ccc1Nc1nc(Nc2cc(OC)nc(N3CCN(CC)CC3)c2)ncc1C(F)(F)F [Compound I-88, N-(2-((2-((2-(4-Ethylpiperazin-1-yl)-6-methoxypyridin-4-yl)amino)-5-(trifluoromethyl)pyrimidin-4-yl)amino)-5-methoxyphenyl)acrylamide] | 6.30 to 7.00 | < 0.1 | 6.30 to 7.00
9 | C=CC(=O)Nc1cc(C)ccc1Nc1nc(Nc2cc(OC)nc(N3CCN(CC)CC3)c2)ncc1C(F)(F)F [Compound I-89, N-(2-((2-((2-(4-Ethylpiperazin-1-yl)-6-methoxypyridin-4-yl)amino)-5-(trifluoromethyl)pyrimidin-4-yl)amino)-5-methylphenyl)acrylamide] | 6.30 to 7.00 | < 0.1 | 6.30 to 7.00
10 | C=CC(=O)Nc1cc(C)ccc1Nc1nc(Nc2cc(OC)ncc2C)ncc1C(F)(F)F [Compound I-90, N-(2-((2-((2-Methoxy-5-methylpyridin-4-yl)amino)-5-(trifluoromethyl)pyrimidin-4-yl)amino)-5-methylphenyl)acrylamide] | > 7.00 | 0.101 to 0.5 | > 7.00
11 | C=CC(=O)Nc1ccccc1Nc1nc(N[C@H]2CCCN(C(C)=O)C2)ncc1Cl [Compound I-115, (S)—N-(2-((2-((1-acetylpiperidin-3-yl)amino)-5-chloropyrimidin-4-yl)amino)phenyl)acrylamide] | > 7.00 | < 0.1 | 
12 | C=CC(=O)Nc1cc(C)ccc1Nc1nc(Nc2cc(C(N)=O)ccn2)ncc1Cl [Compound I-238, 2-((4-((2-acrylamido-4-methylphenyl)amino)-5-chloropyrimidin-2-yl)amino)isonicotinamide] | > 7.00 | 0.101 to 0.5 | 
13 | C=CC(=O)Nc1cc(OC)ccc1Nc1nc(Nc2cc(Cl)nc(OC)c2)ncc1Cl [Compound I-245, N-(2-((5-chloro-2-((2-chloro-6-methoxypyridin-4-yl)amino)pyrimidin-4-yl)amino)-5-methoxyphenyl)acrylamide] | > 7.00 | 0.101 to 0.5 | 
14 | C=CC(=O)Nc1ccccc1Nc1nc(Nc2cc(Cl)nc(OC)c2)ncc1Cl [Compound I-246, N-(2-((5-chloro-2-((2-chloro-6-methoxypyridin-4-yl)amino)pyrimidin-4-yl)amino)phenyl)acrylamide] | > 7.00 | < 0.1 | 
15 | C=CC(=O)Nc1ccccc1Nc1nc(Nc2cc(F)ccc2C)ncc1C(F)(F)F [Compound I-285, N-(2-((2-((5-Fluoro-2-methylphenyl)amino)-5-(trifluoromethyl)pyrimidin-4-yl)amino)phenyl)acrylamide] | 6.30 to 7.00 |  | < 6.00
16 | C=CC(=O)Nc1ccccc1Nc1nc(Nc2ccnc(F)c2)ncc1C(F)(F)F [Compound I-287, N-(2-((2-((2-Fluoropyridin-4-yl)amino)-5-(trifluoromethyl)pyrimidin-4-yl)amino)phenyl)acrylamide] | > 7.00 |  | > 7.00
17 | C=CC(=O)Nc1cc(C)ccc1Nc1nc(Nc2ccnc(F)c2)ncc1C(F)(F)F [Compound I-288, N-(2-((2-((2-Fluoropyridin-4-yl)amino)-5-(trifluoromethyl)pyrimidin-4-yl)amino)-5-methylphenyl)acrylamide] | 6.30 to 7.00 |  | 6.30 to 7.00
18 | C=CC(=O)Nc1ccccc1Nc1nc(Nc2cc(N[C@H]3CC[C@@H](O)CC3)nc(OC)c2)ncc1C(F)(F)F [Compound I-292] |  |  | > 7.00
19 | C=CC(=O)Nc1cc(C)ccc1Nc1nc(Nc2cc(C)nc(OC)c2)ncc1C(F)(F)F [Compound I-295, N-(2-((2-((2-methoxy-6-methylpyridin-4-yl)amino)-5-(trifluoromethyl)pyrimidin-4-yl)amino)-5-methylphenyl)acrylamide] | > 7.00 |  | > 7.00
20 | C=CC(=O)Nc1ccccc1Nc1nc(Nc2cc(OC)nc(N3CCN(C)CC3)c2)ncc1C(F)(F)F [Compound I-324, N-(2-((2-((2-methoxy-6-(4-methylpiperazin-1-yl)pyridin-4-yl)amino)-5-(trifluoromethyl)pyrimidin-4-yl)amino)phenyl)acrylamide] |  | < 0.1 | 6.30 to 7.00
21 | C=CC(=O)Nc1cc(C)ccc1Nc1nc(Nc2cc(N[C@H]3CC[C@@H](O)CC3)nc(OC)c2)ncc1C(F)(F)F [Compound I-326, N-(2-((2-((2-((cis-4-hydroxycyclohexyl)amino)-6-methoxypyridin-4-yl)amino)-5-(trifluoromethyl)pyrimidin-4-yl)amino)-5-methylphenyl)acrylamide] |  |  | > 7.00
22 | C=CC(=O)Nc1cc(C)ccc1Nc1nc(Nc2cc(OC)cc(OC)c2)ncc1C(F)(F)F [Compound I-339, N-(2-((2-((3,5-dimethoxyphenyl)amino)-5-(trifluoromethyl)pyrimidin-4-yl)amino)-5-methylphenyl)acrylamide] |  | < 0.1 | 6.00 to 6.30
23 | C=CC(=O)Nc1cc(C)ccc1Nc1nc(Nc2cc(OC)ccc2C)ncc1C(F)(F)F [Compound I-341, N-(2-((2-((5-methoxy-2-methylphenyl)amino)-5-(trifluoromethyl)pyrimidin-4-yl)amino)-5-methylphenyl)acrylamide] | 6.30 to 7.00 |  | < 6.00
